From US20190169620A1, “Treatment of HER2-Dependent Cancers by SORL1 Inhibition” (TURUN YLIOPISTO, priority 2017, published 2019)
“Also recorded” adds a separate entry of the source.

Experiments:
[1] = system: HER2-amplified breast cancer cells
Method: Transient SORLA (with two individual siRNAs) or scramble silencing was performed for 5637 bladder cancer cells. After 48 hours of silencing, 3000 cells per well were plated on 96-well plate. Cells were treated with increasing concentration of Ebastine and Loratadine for 48 hours. After 48 hours of treatment, WST-8 reagent (Sigma, 96992) was added 10 μl/well and absorbance 450 nm was measured by plate reader after 1-2 h of incubation at 37° C. with 5% CO2. Medium without cells was used as background and the A450 of background was subtracted from the samples. Relative viability was calculated by normalizing the A450 values of drug treated to DMSO treated cells. IC50 values were calculated by GraphPad using nonlinear regression to fit the data to the log(inhibitor) vs. response (variable slope) curve.

[2] = system: 5637 bladder cancer cells; test: Colony formation assay of SORLA silenced 5637 treated with CADs; type: cell-based; conditions: drug for 7 days combined with SORLA silencing
Method: Transient SORLA (with two individual siRNAs) or scramble silencing was performed for 5637 bladder cancer cells. After 48 hours of silencing, 20 000 cells per well were plated on colony formation assay on 12-well plate. […] DMSO was used as control. Cells were treated for 7 days and drugs including media was replenished between 3-4 days of culture. After 7 days, cells were stained with 0.2% Crystal Violet in 10% EtOH for 10 min RT. Cells were washed extensively with PBS and dried. Wells were scanned and confluency was measured by using Image J colony area plug-in.

[3] = system: MDA-MB-361 cells; test: Proliferation assay (WST-8), MDA-MB-361; type: cell-based; conditions: MDA-MB-361, lapatinib treated
Method: Cells were plated on 96-well plate (3000 cells/well, 4 replicates per sample) in volume of 100 μl.
Transfection of siRNAs to silence SORLA or HER2 protein expression: Cells were seeded on 6-well plate day before the transfection (300 000-500 000 cells/well). On next day, transfection mix containing siRNA (20-40 nM of targeting SORLA, 40 nM of HER2 targeting siRNA and 20-40 nM scramble siRNA) and RNAiMAX transfection reagent (Manufacturer) in OptiMEM medium was prepared. The mix was allowed to stand for 15 min at room temperature before adding to the cells on 6 well plate. After 48 hours of transfection cells were used for experiments.

[4] = system: BT474 cells; test: Cell cycle analysis (propidium iodide, flow cytometry); type: cell-based; conditions: BT474, 0.5 μM lapatinib for 24 hours; stated as the effect SORLA silencing mimics
Method: BT474 transfected with control siRNA and with two individual siRNA against SORLA (#3 and #4) and BT474 treated with DMSO or with 0.5 μM Lapatinib for 24 hours were trypsinized, spun down and suspended in ice cold PBS (1 ml). Cells were fixed with 70% EtOH (ice cold) by adding 3 ml of 70% EtOH in dropwise manner while gently vortexin the cells. Cells were then stored at +4° C. until propidium iodide (PI) staining was performed. PI (Sigma) staining was performed by preparing 25 μg/ml PI solution in PBS with RNAase A (Qiagen). Cells were washed twice with PBS. After that cells were suspended in PI solution and incubated 10 minutes on ice. Samples were protected from light and kept on ice until flow cytometry analysis. Samples were run with LSR II and cell cycle analysis was performed with FlowJo.

[5] = system: LAMP1- and CD63 (LAMP3)-positive lysosomes; test: Immunofluorescent imaging of lysosome aggregation (LAMP1, CD63); type: cell-based; conditions: Lapatinib 24 h, 0.5 mM
Method: (§1) Cells were plated on ibidi 8-well dishes or in some cases in […] ibidi dishes. Cells were fixed with 4% paraformaldehyde (PFA) in phosphate buffer saline (PBS) for 10 min at room temperature. PFA was quenched by incubating with 50 mM NH4Cl for 15 min at room temperature. Cells were blocked and permeabilized with 30% horse serum in PBS +0.3% Triton X-100 15 min at room temperature. Primary antibodies were diluted in 30% horse serum and incubated over night at +4° C. HER2 staining was performed with Herceptin (Roche) or with mouse monoclonal antibody (ThermoScientific; MA5-14057) in dilution of 1:300, LAMP1 antibody (Santa Cruz; SC-20011 (H4A3)) was diluted 1:50, rabbit monoclonal SORLA antibody (CM Petersen Lab, Arhus University) in dilution of 1:300, goat anti-EEA-1 (Santa Cruz; sc-6415) 1:50, goat anti-VPS35 (Abcam; ab10099) 1:300, mouse anti-CD63 (Hybridoma Bank; H5C6) 1:300 and rabbit anti-TGN46 (Abcam; ab50595) 1:300. After primary antibody incubation, cells were washed three times with PBS for 5 min at room temperature and then secondary antibodies were diluted 1:300 in 30% horse serum. […]

[6] = system: TFEB and LAMP1; test: Western blot analysis of TFEB and LAMP1 protein levels; type: cell-based; conditions: SKBR3, lapatinib treatment (24 h)
Method: Protein extracts were sonicated (0.5 min ON/0.5 min OFF totally 5 min with full power) and protein levels were measured by Bio-Rad protein quantification kit. Sample buffer was added and samples were boiled for 5 min at 95° C. heat block. Proteins were separated on 4-20% gradient gel (Bio-Rad) and transferred into nitrocellulose membranes (Bio-Rad) by semi-dry turbo blot (Bio-Rad). Membranes were blocked with 5% milk powder in TBST for 1 hour at room temperature. Primary antibodies were diluted in blocking buffer (ThermoScientific) and PBS (1:1 ratio) mix and incubated over night at +4° C. Following primary antibodies were used: HER2 (Thermo Scientific, MA5-14057), SORLA (BD Transduction Lab, 612633), α-tubulin (Hybridoma Bank).

[7] = system: HER2; test: Immunofluorescent imaging of HER2 localization; type: cell-based; conditions: BT474, primaquine 24 h, 0.3 and 0.6 mM
Method: as §1

Q: Which cell viability ([1]; Ebastine 48 hours in combination with SORLA silencing, irrespective of anti-HER2 therapy sensitivity) does the source give for `CC(C)(C)c1ccc(C(=O)CCCN2CCC(OC(c3ccccc3)c3ccccc3)CC2)cc1` [Ebastine] here?
A: synergistic effect on cell viability; also recorded: significantly decreased cell viability

Q: And the “cell death in vitro” value ([1]; Ebastine combined with SORLA silencing)?
A: significantly increased cell death

Q: What about the “5637 bladder cancer colony growth” value [2] of the same molecule?
A: significant synergistic effects

Q: Which “5637 bladder cancer colony growth” value [2] does the source give for `CCOC(=O)N1CCC(=C2c3ccc(Cl)cc3CCc3cccnc32)CC1` [Loratadine] here?
A: significant synergistic effects

Q: Which “proliferation / drug sensitivity” value [3] does the source give for `CS(=O)(=O)CCNCc1ccc(-c2ccc3ncnc(Nc4ccc(OCc5cccc(F)c5)c(Cl)c4)c3c2)o1` [lapatinib] here?
A: resistant to Lapatinib

Q: And the cell cycle distribution [4]?
A: increased accumulation of cells at G1/G0 and decreased number of cells in S phase

Q: What about the lysosome aggregation ([5]; BT474 (sensitive)) of the same molecule?
A: induced lysosome aggregation

Q: What about the lysosome aggregation ([5]; MDA-MB-361 (resistant)) of the same molecule?
A: not in the resistant MDA-MB-361 cells

Q: And the LAMP1 protein levels [6]?
A: similarly increased

Q: `COc1cc(NC(C)CCCN)c2ncccc2c1` (stereo not shown) [primaquine] was tested. Which HER2 localization [7] did it give?
A: accumulation of intracellular HER2
